The assay deals with Urokinase-type plasminogen activator (Homo sapiens) (UniProt P00749). The assay is described as follows: Compound was tested for microPa) Urokinase-type plasminogen activator from human urine.

`CC[C@H](C)[C@@H]1NC(=O)[C@@H]2CCCN2C(=O)[C@@H]2CCCN2C(=O)[C@H]([C@@H](C)CC)NC(=O)[C@H](CO)NC(=O)[C@H](CCCCN)NC(=O)[C@H]([C@@H](C)O)NC(=O)[C@@H]2CSSC[C@H](NC1=O)C(=O)N[C@@H](Cc1ccccc1)C(=O)N1CCC[C@H]1C(=O)N[C@@H](CC(=O)O)C(=O)NCC(=O)N[C@@H](CCCNC(=N)N)C(=O)N2` registered a Ki of 500 µM.

The term Ki denotes a dissociation constant, usually derived from enzyme kinetics or from competition with a known ligand. A higher Ki goes with weaker binding.

For the origin of these results see BindingDB's records for doi:10.1016/s0960-894x(01)00493-0 (National Cancer Institute-Frederick, 2001).
